Measured values: PubChem BioAssay AID248 (DTP/NCI, 2004)
Inconclusive results and toxic doses are left out. No stated cut-off is given here; in the data, active means T/C of 150% or more; inactive means T/C below 125%.

System: L1210 leukemia ip in BDF1 mice, survival T/C
Assay: NCI In Vivo Anticancer Drug Screen. Data for tumor model L1210 Leukemia (intraperitoneal) in B6D2F1 (BDF1) mice
Conditions: endpoint: mean survival time, higher = longer survival
Method in brief: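 Read-out is survival time, reported as the treated-group measurement over the vehicle-control measurement.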

[1] = dose: 100.0 mg/kg/injection, schedule: Q01DX009 (ip), vehicle: saline with Tween-80
[2] = dose: 200.0 mg/kg/injection, schedule: Q01DX009 (ip), vehicle: saline with Tween-80
[3] = dose: 400.0 mg/kg/injection, schedule: Q01DX009 (ip), vehicle: saline with Tween-80
[4] = dose: 100.0 mg/kg/injection, schedule: Q04DX002 (ip), vehicle: Klucel (hydroxypropylcellulose) (HPC)
[5] = dose: 200.0 mg/kg/injection, schedule: Q04DX002 (ip), vehicle: Klucel (hydroxypropylcellulose) (HPC)
[6] = dose: 400.0 mg/kg/injection, schedule: Q04DX002 (ip), vehicle: Klucel (hydroxypropylcellulose) (HPC)
[7] = dose: 100.0 mg/kg/injection, schedule: Q01DX001 (ip), vehicle: saline
[8] = dose: 100.0 mg/kg/injection, schedule: Q04DX003 (ip), vehicle: saline
[9] = dose: 200.0 mg/kg/injection, schedule: Q01DX001 (ip), vehicle: saline
[10] = dose: 200.0 mg/kg/injection, schedule: Q04DX003 (ip), vehicle: saline
[11] = dose: 400.0 mg/kg/injection, schedule: Q01DX001 (ip), vehicle: saline
[12] = dose: 400.0 mg/kg/injection, schedule: Q04DX003 (ip), vehicle: saline
[13] = dose: 100.0 mg/kg/injection, schedule: Q01DX009 (ip), vehicle: saline
[14] = dose: 200.0 mg/kg/injection, schedule: Q01DX009 (ip), vehicle: saline
[15] = dose: 400.0 mg/kg/injection, schedule: Q01DX009 (ip), vehicle: saline
[16] = dose: 100.0 mg/kg/injection, schedule: Q04DX003 (ip), vehicle: saline with Tween-80
[17] = dose: 200.0 mg/kg/injection, schedule: Q04DX003 (ip), vehicle: saline with Tween-80
[18] = dose: 400.0 mg/kg/injection, schedule: Q04DX003 (ip), vehicle: saline with Tween-80
[19] = dose: 100.0 mg/kg/injection, schedule: Q01DX001 (ip), vehicle: carboxymethylcellulose (CMC)
[20] = dose: 200.0 mg/kg/injection, schedule: Q01DX001 (ip), vehicle: carboxymethylcellulose (CMC)
[21] = dose: 400.0 mg/kg/injection, schedule: Q01DX001 (ip), vehicle: carboxymethylcellulose (CMC)

Measured: T/C

CCOC(=O)CNC(=O)C(CSCc1cccs1)NC(=O)OCc1ccccc1 (centres undefined)
inactive: [1] 100 % of control | [2] 94 % of control | [3] 90 % of control

C(=N\N=C\c1ccccc1)/c1ccccc1
inactive: [1] 97 % of control | [4] 98 % of control | [2] 100 % of control | [5] 91 % of control | [3] 100 % of control | [6] 102 % of control

CCNC(=O)NC1C(O)OC(CO)C(O)C1O (centres undefined)
inactive: [7] 96 % of control | [8] 99 % of control | [9] 103 % of control | [10] 99 % of control | [11] 102 % of control | [12] 95 % of control

O=C(O)CSC(CC(=O)O)C(=O)O (centres undefined)
inactive: [13] 107 % of control | [14] 108 % of control | [15] 103 % of control

O=c1[nH]c(=O)n(C2CC(O)C(CO)O2)cc1Br (centres undefined)
inactive: dose: 50.0 mg/kg/injection, schedule: Q02DX Z (ip), vehicle: carboxymethylcellulose (CMC) 108 % of control | dose: 100.0 mg/kg/injection, schedule: Q02DX Z (ip), vehicle: carboxymethylcellulose (CMC) 107 % of control | dose: 150.0 mg/kg/injection, schedule: Q02DX Z (ip), vehicle: carboxymethylcellulose (CMC) 109 % of control | dose: 200.0 mg/kg/injection, schedule: Q02DX Z (ip), vehicle: carboxymethylcellulose (CMC) 113 % of control | dose: 250.0 mg/kg/injection, schedule: Q02DX Z (ip), vehicle: carboxymethylcellulose (CMC) 109 % of control | dose: 300.0 mg/kg/injection, schedule: Q02DX Z (ip), vehicle: carboxymethylcellulose (CMC) 113 % of control | dose: 400.0 mg/kg/injection, schedule: Q02DX Z (ip), vehicle: carboxymethylcellulose (CMC) 110 % of control | dose: 500.0 mg/kg/injection, schedule: Q02DX Z (ip), vehicle: carboxymethylcellulose (CMC) 114 % of control | dose: 600.0 mg/kg/injection, schedule: Q01DX009 (ip), vehicle: carboxymethylcellulose (CMC) 123 % of control | dose: 600.0 mg/kg/injection, schedule: Q02DX Z (ip), vehicle: carboxymethylcellulose (CMC) 122 % of control | dose: 800.0 mg/kg/injection, schedule: Q01DX Z (ip), vehicle: carboxymethylcellulose (CMC) 122 % of control | dose: 1000.0 mg/kg/injection, schedule: Q01DX Z (ip), vehicle: carboxymethylcellulose (CMC) 113 % of control | dose: 1800.0 mg/kg/injection, schedule: Q01DX009 (ip), vehicle: carboxymethylcellulose (CMC) 102 % of control

CCOC(=O)COc1cc([N+](=O)[O-])c(Cl)cc1Cl
inactive: [4] 98 % of control | [5] 98 % of control | [6] 98 % of control

CCCCCCCCCCCCCCCCCC(=O)OCCCCCCCCCCCCC
inactive: dose: 100.0 mg/kg/injection, schedule: Q01DX009 (ip), vehicle: saline sonified 88 % of control | [16] 100 % of control | dose: 200.0 mg/kg/injection, schedule: Q01DX009 (ip), vehicle: saline sonified 95 % of control | [17] 92 % of control | dose: 400.0 mg/kg/injection, schedule: Q01DX009 (ip), vehicle: saline sonified 91 % of control | [18] 86 % of control

O=C(/C=C/c1ccc2c(c1)OCO2)c1ccc(Cl)cc1
inactive: dose: 50.0 mg/kg/injection, schedule: Q01DX009 (ip), vehicle: saline with Tween-80 97 % of control | [1] 95 % of control | [2] 96 % of control

Cc1cc(NS(=O)(=O)c2ccc(N=Nc3c(N)nc(N)nc3N)cc2)nc(C)n1
inactive: [19] 103 % of control | [20] 97 % of control | [21] 105 % of control

CC(CSc1ccccc1)NCCO (centres undefined)
inactive: [16] 97 % of control

CC(C)COC(=O)Cc1cccc2ccccc12
inactive: dose: 222.0 mg/kg/injection, schedule: Q01DX Z (ip), vehicle: saline 96 % of control | dose: 333.0 mg/kg/injection, schedule: Q01DX Z (ip), vehicle: saline 96 % of control | dose: 500.0 mg/kg/injection, schedule: Q01DX Z (ip), vehicle: saline 94 % of control

CCc1ccc(NC(=O)c2ccc(Cl)cc2Cl)cc1
inactive: [4] 97 % of control | [5] 87 % of control | [6] 91 % of control

CCCCOCC1CO1 (centres undefined)
inactive: [16] 92 % of control | [17] 95 % of control | [18] 98 % of control

CC(=O)CC(=O)CC(O)(C(F)(F)F)C(F)(F)F
inactive: [1] 96 % of control

CCCN(CCC)C(=O)c1ccncc1
inactive: [13] 107 % of control | [8] 101 % of control | [14] 102 % of control | [10] 102 % of control | [15] 91 % of control | [12] 114 % of control

Cc1cc(-c2ccccc2O)nc(N)n1
inactive: dose: 100.0 mg/kg/injection, schedule: Q04DX002 (ip), vehicle: saline 90 % of control | dose: 200.0 mg/kg/injection, schedule: Q04DX002 (ip), vehicle: saline 94 % of control | dose: 400.0 mg/kg/injection, schedule: Q04DX002 (ip), vehicle: saline 90 % of control

CSc1n[n+](-c2ccccc2)cs1
inactive: [7] 103 % of control | [9] 103 % of control | [11] 100 % of control

O=S(=O)(O)Nc1ccc(S(=O)(=O)O)c2ccccc12
inactive: dose: 50.0 mg/kg/injection, schedule: Q01DX001 (ip), vehicle: saline 102 % of control | [7] 93 % of control | [9] 96 % of control | [11] 98 % of control

NC(=O)Nc1ccccc1
inactive: dose: 100.0 mg/kg/injection, schedule: Q01DX009 (ip), vehicle: Klucel (hydroxypropylcellulose) (HPC) 103 % of control | [4] 109 % of control | dose: 200.0 mg/kg/injection, schedule: Q01DX009 (ip), vehicle: Klucel (hydroxypropylcellulose) (HPC) 106 % of control | [5] 109 % of control | dose: 400.0 mg/kg/injection, schedule: Q01DX009 (ip), vehicle: Klucel (hydroxypropylcellulose) (HPC) 103 % of control | [6] 88 % of control

NS(N)(=O)=O
inactive: dose: 50.0 mg/kg/injection, schedule: Q01DX001 (ip), vehicle: carboxymethylcellulose (CMC) 88 % of control | [19] 95 % of control | [20] 98 % of control | [21] 98 % of control

Cc1nc2c(NC(=O)C(F)(F)F)nn(C)c2nc1C
inactive: [1] 94 % of control | [16] 100 % of control | [2] 92 % of control | [17] 100 % of control | [18] 106 % of control

Nc1ncnc2c1c(S(=O)(=O)O)cn2C1OC(CO)C(O)C1O (centres undefined)
inactive: dose: 100.0 mg/kg/injection, schedule: Q01DX001 (ip), vehicle: Klucel (hydroxypropylcellulose) (HPC) 90 % of control | dose: 200.0 mg/kg/injection, schedule: Q01DX001 (ip), vehicle: Klucel (hydroxypropylcellulose) (HPC) 93 % of control | dose: 400.0 mg/kg/injection, schedule: Q01DX001 (ip), vehicle: Klucel (hydroxypropylcellulose) (HPC) 100 % of control

COc1c(NC(=O)c2c(Br)c(Br)c(Br)c(Br)c2C(=O)O)cccc1[N+](=O)[O-]
inactive: [4] 94 % of control | [5] 102 % of control | [6] 118 % of control
